The supplement of paper PMC10307832

Key:
Assay in all cases: relative viability (nuclei count vs DMSO), 5 days (fraction); higher = more cells survive
[1] = compound: CCOC1=CC=CC=C1N=NC2=C(NN(C2=O)C3=NC(=CS3)C4=CC=CC=C4)C [BAM7] + CS(=O)(=O)CCNCc1ccc(-c2ccc3ncnc(Nc4ccc(OCc5cccc(F)c5)c(Cl)c4)c3c2)o1 [Lapatinib] (partner 2 µM)
How it was run: (§1)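 Lung cancer cell lines in 1536-well plates were dosed by pin tool the day after seeding, either with one drug alone or with a fixed anchor-drug dose plus five library-drug doses (not always all listed) in √10 steps. After 5 days, cells were fixed and their nuclei stained in one step (final 0.05% Triton X-100, 1% formaldehyde, 1 ug/ml Hoechst), then counted on 4× images. Relative viability is the nuclei count in treated wells divided by that in vehicle wells. Values are medians of duplicate plates.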

[2] = compound: CCOC1=CC=CC=C1N=NC2=C(NN(C2=O)C3=NC(=CS3)C4=CC=CC=C4)C [BAM7] + CS(=O)(=O)N1CCN(Cc2cc3nc(-c4cccc5[nH]ncc45)nc(N4CCOCC4)c3s2)CC1 [Pictilisib] (partner 1 µM)
How it was run: as §1

[3] = compound: CCn1c(-c2nonc2N)nc2c(C#CC(C)(C)O)ncc(OC[C@H]3CCCNC3)c21 + CS(=O)(=O)CCNCc1ccc(-c2ccc3ncnc(Nc4ccc(OCc5cccc(F)c5)c(Cl)c4)c3c2)o1 [Lapatinib] (partner 2 µM)
How it was run: as §1

[4] = compound: CCn1c(-c2nonc2N)nc2c(C#CC(C)(C)O)ncc(OC[C@H]3CCCNC3)c21 + Cc1nc(NC(=O)N2CCC[C@H]2C(N)=O)sc1-c1ccnc(C(C)(C)C(F)(F)F)c1 [Alpelisib] (partner 2 µM)
How it was run: as §1

Cell Line	relative viability ([1]; first compound 0.5 µM)	relative viability ([1]; first compound 5 µM)	relative viability ([1]; first compound 15.81 µM)	relative viability ([1]; first compound 50 µM)	relative viability ([2]; first compound 0.5 µM)	relative viability ([2]; first compound 5 µM)	relative viability ([2]; first compound 15.81 µM)	relative viability ([2]; first compound 50 µM)	relative viability ([3]; first compound 0.01 µM)	relative viability ([3]; first compound 0.03162 µM)	relative viability ([3]; first compound 0.1 µM)	relative viability ([3]; first compound 0.3162 µM)	relative viability ([3]; first compound 1 µM)	relative viability ([4]; first compound 0.01 µM)	relative viability ([4]; first compound 0.03162 µM)	relative viability ([4]; first compound 0.1 µM)	relative viability ([4]; first compound 0.3162 µM)	relative viability ([4]; first compound 1 µM)
HCC-44	1.09	1.02	1	0.983	0.593	0.65	0.534	0.634	0.93	0.975	1.01	0.989	1.09	0.732	0.818	0.794	0.761	0.786
HCC-827	0.205	0.2	0.205	0.202	0.969	0.908	0.877	0.977	0.175	0.219	0.191	0.173	0.217	1.01	0.93	0.948	1	1.05
NCI-H2347	0.968	1.26	0.899	1.03	0.639	0.746	0.598	0.913	0.891	0.934	0.995	0.897	0.889	1.09	0.97	0.992	0.972	1.17
PC-14	0.334	0.324	0.309	0.351	0.775	1.02	0.598	0.656	0.314	0.406	0.319	0.246	0.291	0.945	0.909	1	0.888	0.865
NCI-H1651	0.747	0.756	0.831	0.858	0.497	0.64	0.7	0.541	0.816	0.854	0.798	0.715	0.842	1.01	0.879	0.937	0.917	1.19
HARA	0.68	0.777	0.682	0.793	0.327	0.267	0.334	0.264	0.718	0.7	0.684	0.554	0.95	0.843	0.884	0.824	0.781	0.861
NCI-H1650	0.758	0.726	0.806	0.855	0.524	0.572	0.565	0.699	0.758	0.864	0.708	0.725	0.578	–	–	–	–	–
NCI-H1395	0.826	1.03	1.17	1.33	0.612	0.714	0.702	0.683	0.815	0.842	0.858	0.769	0.869	0.986	1.35	1.01	0.79	0.76
LU99A	0.975	0.788	1.09	1.03	0.32	0.315	0.398	0.353	0.874	1.07	0.869	0.865	0.818	0.586	0.558	0.538	0.504	0.47
NCI-H1355	0.972	1.01	0.986	1.02	0.462	0.41	0.384	0.435	1.03	0.944	0.998	0.926	1.02	0.863	0.732	0.786	0.825	0.82
HCC-78	0.74	0.69	0.98	1.11	0.178	0.177	0.213	0.245	0.717	0.673	0.903	0.547	0.301	0.306	0.372	0.351	0.307	0.356
NCI-H1563	1.01	0.962	0.969	1.05	0.651	0.714	0.642	0.639	0.93	0.94	0.924	0.926	0.781	0.872	0.913	0.913	0.837	0.826
HCC-15	0.912	0.896	0.908	0.865	0.818	0.802	0.764	0.747	0.868	0.824	0.865	0.808	0.795	0.868	0.945	0.86	0.832	0.946
EKVX	0.199	0.201	0.192	0.507	0.458	0.512	0.335	0.415	0.235	0.203	0.223	0.206	0.223	0.937	0.943	0.862	0.842	0.919
NCI-H2087	1.12	1.17	1.08	0.934	1.09	1.1	0.989	0.893	0.965	0.999	0.899	1.07	1.03	0.917	1.2	1.13	1.02	0.927
LK-2	1.22	1.03	1.02	1.11	0.595	0.663	0.598	0.546	0.998	1.01	0.668	0.697	0.926	1.24	1.27	0.984	0.916	1.01
NCI-H1437	0.686	0.514	0.51	0.68	0.722	0.434	0.318	0.63	0.841	0.821	0.877	0.719	0.795	0.895	0.964	0.965	0.778	0.902
COR-L23	1.28	1.14	0.914	1.02	0.832	0.855	0.743	0.872	0.935	0.994	0.985	0.916	1.05	0.695	0.866	0.671	0.663	0.7
ABC-1	–	1.24	1.16	1.36	0.746	0.674	0.984	0.857	1.28	1.26	1	1.13	1.15	0.849	0.961	1.09	0.881	0.715

Cell Line	relative viability ([1]; first compound 0.5 µM)	relative viability ([1]; first compound 5 µM)	relative viability ([1]; first compound 15.81 µM)	relative viability ([1]; first compound 50 µM)	relative viability ([2]; first compound 0.5 µM)	relative viability ([2]; first compound 5 µM)	relative viability ([2]; first compound 15.81 µM)	relative viability ([2]; first compound 50 µM)	relative viability ([3]; first compound 0.01 µM)	relative viability ([3]; first compound 0.03162 µM)	relative viability ([3]; first compound 0.1 µM)	relative viability ([3]; first compound 0.3162 µM)	relative viability ([3]; first compound 1 µM)	relative viability ([4]; first compound 0.01 µM)	relative viability ([4]; first compound 0.03162 µM)	relative viability ([4]; first compound 0.1 µM)	relative viability ([4]; first compound 0.3162 µM)	relative viability ([4]; first compound 1 µM)
NCI-H838	1.03	1.04	0.908	1.14	0.487	0.421	0.449	0.441	1.11	1.13	1.1	0.853	0.968	1.05	1.02	1.03	0.979	0.989
A549	1.08	1.05	1.03	0.924	0.566	0.507	0.483	0.508	0.93	0.99	1.01	0.842	0.781	0.761	0.654	0.748	0.482	0.714
A-427	1.01	1.09	1.03	1.09	0.557	0.75	0.676	0.72	0.962	1.05	0.932	1.03	1.03	0.998	1.11	1.05	0.997	1.14
NCI-H1792	0.963	0.914	1.09	0.842	0.282	0.258	0.228	0.289	0.897	0.859	0.862	0.757	0.871	0.776	0.697	0.667	0.596	0.791
LCLC-97TM1	1	1.21	1.04	1.31	0.218	0.197	0.172	0.2	–	0.854	1.06	0.663	1.27	–	0.278	0.224	0.235	0.257
NCI-H1703	1.1	1.17	0.936	1.2	0.23	0.262	–	0.256	0.998	1.23	1.05	0.739	0.662	0.333	0.374	0.392	0.28	0.299
LCLC-103H	–	–	–	–	0.611	0.654	0.604	0.687	–	–	–	–	–	0.984	0.945	1	0.848	0.953
PC-3 [JPC-3]	0.425	0.472	0.427	0.412	0.693	0.736	0.612	0.631	0.442	0.433	0.472	0.449	0.445	1.16	1.02	0.977	1.02	1.02
BEN	0.754	0.72	0.676	0.836	0.611	0.642	0.518	0.59	0.608	0.717	0.444	0.637	0.626	1.01	1.17	1.01	0.987	1.01
NCI-H1666	0.47	0.7	0.564	0.754	0.404	0.617	0.352	0.587	0.552	0.487	0.469	0.521	0.508	0.874	1.1	0.992	0.792	0.831
LC-2-ad	1.09	0.948	0.933	0.859	0.581	0.222	0.383	0.427	0.993	1.01	0.906	0.975	0.977	0.898	0.973	0.925	0.823	0.565
SK-LU-1	0.78	1.02	0.846	0.897	0.502	0.658	0.678	0.737	1.02	0.907	0.85	0.894	0.676	1.08	1.26	0.968	1	1.13
ChaGo-K-1	–	–	–	–	0.647	0.878	0.789	0.929	–	–	–	–	–	–	–	–	–	–
COR-L 105	0.357	0.355	0.382	0.44	0.366	0.427	0.432	0.455	0.33	0.366	0.313	0.393	0.321	1.05	0.962	0.871	0.703	0.808
NCI-H1975	0.848	0.77	–	0.819	0.29	0.259	–	0.283	0.828	0.975	0.927	0.799	0.728	0.716	0.656	0.623	0.543	0.583
Calu-6	1.06	1.09	1.05	1.07	1.01	0.98	0.893	0.823	1.06	1.14	1.11	1.04	1.07	0.92	1.08	1.02	0.963	1.14
NCI-H1993	0.76	0.915	0.763	0.906	0.82	0.896	0.778	0.879	0.957	0.781	0.947	0.704	0.872	0.732	0.718	0.57	0.729	0.868
RERF-LC-KJ	0.868	0.815	0.802	0.791	0.551	0.496	0.492	0.515	0.873	0.743	0.814	0.832	0.926	0.886	0.958	0.737	0.656	0.781
NCI-H441	–	–	–	–	0.433	0.47	0.528	0.519	–	–	–	–	–	0.653	0.891	0.749	0.683	0.717
